For assay [1], the target named is T1, Human recombinant PDE3A (hPDE3A) (Homo sapiens, UniProt Q14432).
T1 construct: purchased Scottish Biomedical; host or cells: Sf9 insect cells
Description: In vitro assay PDE3A (SPA, 3H-cAMP hydrolysis).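 For all read-outs here: the method names PDE3A and the table heading PDE3B.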 Type of assay: biochemical. The note with it: for IC50: hPDE3B pIC50, read-out: pIC50 (converted); for Emax: read-out: hPDE3B Emax, read-out: Emax. The procedure, abridged:
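Radiometric SPA measuring [3H]-cAMP hydrolysis (0.4 μM cAMP, 2.4 μCi/ml) over 60 min at room temperature, in Tris pH 7.8 buffer with MgCl2 and EGTA, 1% DMSO. Enzyme: recombinant human brain PDE3A expressed in Sf9 cells, used as partially purified lysate. Counts compared with enzyme-free blanks and vehicle controls.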

For assay [2], the target named is T2, Human recombinant PDE10A (hPDE10A) (Homo sapiens, UniProt Q9Y233).
T2 construct: His tag (inferred from metal chelate purification); made in house; host or cells: Sf9 insect cells (baculovirus)
Nature of the assay: In vitro assay PDE10A, human clone (SPA, 3H-cAMP hydrolysis). The class given is biochemical. The conditions noted are these: human clone (h), default; for Emax: read-out: hPDE10A2 Emax; for IC50: read-out: hPDE10A2 pIC50 (converted). The procedure, abridged:
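Hydrolysis of 3H-cAMP (60 nM cAMP, 0.008 μCi tracer) proceeded for 60 min at room temperature, with the product detected by SPA bead scintillation counting. The enzyme was hPDE10A from baculovirus-infected Sf9 cells in Tris pH 7.8 buffer with MgCl2 and EGTA, and compounds were at 1% DMSO final. Blanks lacked enzyme.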

Another assay deals with T3, PDE2A (Rattus norvegicus, UniProt Q01062).
T3 construct: Twenty μm-thick striatal sections were cut; from tissue; host or cells: rat brain, striatal sections
T3 sequence (Q01062 1-928): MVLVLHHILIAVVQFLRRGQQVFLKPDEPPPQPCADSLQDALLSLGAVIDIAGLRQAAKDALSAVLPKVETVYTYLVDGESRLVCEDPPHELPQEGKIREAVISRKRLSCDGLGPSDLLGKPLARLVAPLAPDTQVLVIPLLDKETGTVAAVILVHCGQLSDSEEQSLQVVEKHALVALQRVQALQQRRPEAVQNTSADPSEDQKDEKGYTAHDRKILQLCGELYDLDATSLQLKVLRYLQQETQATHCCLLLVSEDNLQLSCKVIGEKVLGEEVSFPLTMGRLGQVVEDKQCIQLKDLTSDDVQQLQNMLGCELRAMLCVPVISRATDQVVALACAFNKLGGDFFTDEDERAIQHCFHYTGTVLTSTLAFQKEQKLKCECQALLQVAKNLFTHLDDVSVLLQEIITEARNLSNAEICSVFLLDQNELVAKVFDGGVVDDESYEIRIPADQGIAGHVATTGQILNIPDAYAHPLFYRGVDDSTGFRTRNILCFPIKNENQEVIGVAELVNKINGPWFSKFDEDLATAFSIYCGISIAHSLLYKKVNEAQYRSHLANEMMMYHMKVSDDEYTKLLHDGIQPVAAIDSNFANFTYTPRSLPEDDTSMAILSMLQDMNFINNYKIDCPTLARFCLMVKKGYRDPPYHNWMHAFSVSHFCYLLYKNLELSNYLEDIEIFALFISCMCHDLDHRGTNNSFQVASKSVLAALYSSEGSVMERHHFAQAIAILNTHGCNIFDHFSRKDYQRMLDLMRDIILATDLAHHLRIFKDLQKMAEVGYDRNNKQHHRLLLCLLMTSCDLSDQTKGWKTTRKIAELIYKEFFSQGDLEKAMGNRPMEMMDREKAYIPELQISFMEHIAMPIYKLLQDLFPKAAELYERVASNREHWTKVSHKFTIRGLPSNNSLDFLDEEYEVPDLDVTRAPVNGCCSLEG
Description: PDE2 occupancy by test compounds, ex-vivo autoradiography with [3H]B-17a. The class given is in vivo, Male Wistar rats. The conditions noted are these: for receptor occupancy at 10 mg/kg: percentage receptor occupancy, ex-vivo autoradiography, striatum; for ED50: drug dose producing 50% receptor occupancy, read-out: PDE Occupancy ED50.

Assay [3] has as its target T4, Human recombinant PDE2A (hPDE2A) (Homo sapiens, UniProt O00408).
T4 construct: His tag (inferred from metal chelate purification); made in house; host or cells: Sf9 insect cells (baculovirus)
Description: In vitro assay PDE2A (SPA, 3H-cGMP hydrolysis). The class given is biochemical. The conditions noted are these: for Emax: read-out: hPDE2A Emax.

[4] abbreviates: hPDE2A pIC50, human recombinant PDE2A, 10 μM cGMP substrate.
The mark [5] stands for this setting: human recombinant PDE2A, 10 μM cGMP substrate, read-out: hPDE2A pIC50 (converted).
Setting [6] is: read-out: hPDE2A pIC50 (converted).

SMILES strings stand for the structures. Where two headings read alike, the source gives them in different places. A value given as a limit tells only on which side of the number the result lay.

Data on 15 compounds can be found in patent US10947242B2, “[1,2,4]triazolo[1,5and#8208;A]pyrimidine compounds as PDE2 inhibitors” (Janssen Pharmaceutica NV, priority 2016, dated 2021).

In general, Emax refers to the size of the effect at its maximum, as opposed to the concentration needed. For orientation: ED50 means the dose at which the effect has come halfway, by size or by number of responders.

T4 sequence (O00408 whole entry): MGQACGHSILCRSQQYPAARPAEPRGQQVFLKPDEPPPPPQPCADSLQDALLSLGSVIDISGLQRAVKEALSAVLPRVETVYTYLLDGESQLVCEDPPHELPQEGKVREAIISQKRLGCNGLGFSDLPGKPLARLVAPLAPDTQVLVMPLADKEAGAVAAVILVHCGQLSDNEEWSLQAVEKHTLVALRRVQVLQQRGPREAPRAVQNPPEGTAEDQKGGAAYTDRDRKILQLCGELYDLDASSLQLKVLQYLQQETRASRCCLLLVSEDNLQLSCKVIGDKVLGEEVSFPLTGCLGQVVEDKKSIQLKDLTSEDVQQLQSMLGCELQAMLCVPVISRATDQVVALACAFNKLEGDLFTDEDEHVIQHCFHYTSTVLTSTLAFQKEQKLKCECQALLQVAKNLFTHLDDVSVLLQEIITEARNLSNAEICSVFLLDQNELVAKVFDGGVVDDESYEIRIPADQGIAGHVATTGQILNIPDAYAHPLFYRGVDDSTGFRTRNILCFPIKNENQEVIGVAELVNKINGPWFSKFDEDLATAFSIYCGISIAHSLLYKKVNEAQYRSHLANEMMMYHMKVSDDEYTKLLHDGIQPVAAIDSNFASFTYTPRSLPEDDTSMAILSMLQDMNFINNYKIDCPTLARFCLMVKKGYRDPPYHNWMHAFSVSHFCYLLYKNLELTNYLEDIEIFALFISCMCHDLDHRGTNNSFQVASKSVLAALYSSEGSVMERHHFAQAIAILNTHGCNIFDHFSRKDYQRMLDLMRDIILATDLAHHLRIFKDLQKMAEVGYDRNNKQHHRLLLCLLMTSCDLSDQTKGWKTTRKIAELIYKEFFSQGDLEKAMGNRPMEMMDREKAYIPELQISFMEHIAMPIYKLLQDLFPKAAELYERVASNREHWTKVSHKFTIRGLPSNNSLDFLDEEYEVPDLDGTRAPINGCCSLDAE
T1 sequence (Q14432 whole entry): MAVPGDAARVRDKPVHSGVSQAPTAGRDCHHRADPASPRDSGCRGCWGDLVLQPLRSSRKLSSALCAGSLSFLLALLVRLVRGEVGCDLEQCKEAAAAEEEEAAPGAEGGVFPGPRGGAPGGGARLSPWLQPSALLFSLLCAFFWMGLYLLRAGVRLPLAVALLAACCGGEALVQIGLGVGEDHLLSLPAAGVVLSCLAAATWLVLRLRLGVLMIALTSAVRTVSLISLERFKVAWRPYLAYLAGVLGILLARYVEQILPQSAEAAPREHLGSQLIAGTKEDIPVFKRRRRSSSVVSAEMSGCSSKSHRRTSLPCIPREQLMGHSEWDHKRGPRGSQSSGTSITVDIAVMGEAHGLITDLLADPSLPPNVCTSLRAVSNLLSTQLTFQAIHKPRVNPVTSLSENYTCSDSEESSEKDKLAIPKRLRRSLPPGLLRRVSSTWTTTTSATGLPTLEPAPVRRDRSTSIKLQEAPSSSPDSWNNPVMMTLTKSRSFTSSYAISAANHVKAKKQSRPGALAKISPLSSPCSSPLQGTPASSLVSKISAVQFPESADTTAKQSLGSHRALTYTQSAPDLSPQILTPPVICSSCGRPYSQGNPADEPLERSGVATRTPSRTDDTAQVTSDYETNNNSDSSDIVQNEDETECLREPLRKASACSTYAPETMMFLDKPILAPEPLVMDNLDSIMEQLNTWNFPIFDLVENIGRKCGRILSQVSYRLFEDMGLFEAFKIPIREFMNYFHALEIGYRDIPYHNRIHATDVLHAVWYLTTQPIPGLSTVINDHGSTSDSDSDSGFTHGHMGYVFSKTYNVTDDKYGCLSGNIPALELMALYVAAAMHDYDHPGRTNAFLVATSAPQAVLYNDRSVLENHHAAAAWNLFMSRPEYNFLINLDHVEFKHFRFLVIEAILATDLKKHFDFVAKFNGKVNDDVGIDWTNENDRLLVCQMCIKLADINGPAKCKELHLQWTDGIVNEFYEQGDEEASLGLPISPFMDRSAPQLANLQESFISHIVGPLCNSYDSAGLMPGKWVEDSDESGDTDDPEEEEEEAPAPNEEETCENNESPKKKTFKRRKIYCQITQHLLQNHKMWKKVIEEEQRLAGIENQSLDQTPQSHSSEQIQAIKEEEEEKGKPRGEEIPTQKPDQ
T2 sequence (Q9Y233 267-1055): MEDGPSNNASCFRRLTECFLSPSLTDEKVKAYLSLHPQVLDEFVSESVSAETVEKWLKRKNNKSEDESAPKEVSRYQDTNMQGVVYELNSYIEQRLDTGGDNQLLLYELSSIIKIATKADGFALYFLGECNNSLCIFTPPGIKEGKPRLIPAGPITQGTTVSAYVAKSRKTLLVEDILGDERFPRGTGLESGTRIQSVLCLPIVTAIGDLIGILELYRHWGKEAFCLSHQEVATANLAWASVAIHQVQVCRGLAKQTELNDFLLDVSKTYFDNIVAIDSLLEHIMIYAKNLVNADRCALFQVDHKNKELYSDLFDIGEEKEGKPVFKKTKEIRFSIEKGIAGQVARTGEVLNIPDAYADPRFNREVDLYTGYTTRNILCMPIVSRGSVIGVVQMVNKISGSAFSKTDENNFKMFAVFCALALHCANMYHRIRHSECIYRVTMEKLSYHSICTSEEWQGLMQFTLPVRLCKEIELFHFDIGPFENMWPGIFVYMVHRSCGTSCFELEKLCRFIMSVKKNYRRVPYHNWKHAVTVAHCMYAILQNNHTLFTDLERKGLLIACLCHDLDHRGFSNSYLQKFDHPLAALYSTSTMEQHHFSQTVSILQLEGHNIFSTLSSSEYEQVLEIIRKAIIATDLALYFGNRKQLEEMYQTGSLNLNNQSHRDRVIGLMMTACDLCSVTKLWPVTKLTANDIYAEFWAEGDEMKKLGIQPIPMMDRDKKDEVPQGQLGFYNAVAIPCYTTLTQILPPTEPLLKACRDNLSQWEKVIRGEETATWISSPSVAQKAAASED

For the compound `Cc1cc(C(=O)N2CC[C@@H](C)[C@H](c3cc(C(F)F)nc4ncnn34)C2)cc(C)c1C#N` [Compound 78], the IC50 in assay [1] is 1580 nM; in assay [2] it was 105 nM; in assay [3] (hPDE2A pIC50), 1 nM; in assay [3] (setting [4]), 1 nM. In addition, the Emax in assay [1] turned out to be 87%; in assay [2], 98%; in assay [3], 102%. Also, the receptor occupancy at 10 mg/kg on PDE2A (sc, route SC (subcutaneous)) turned out to be 77%.

`CCc1cc(C(=O)N2CC[C@@H](C)[C@H](c3cc(C(F)F)nc4ncnn34)C2)cc(C)n1` [Compound 80]: the IC50 is 4170 nM in assay [1], 81.3 nM in assay [2], 0.794 nM in assay [3] (setting [5]) and 0.794 nM in assay [3] (setting [6]). Also, the Emax in assay [1] was found to be 71%; in assay [2] it was 98%; in assay [3] (human recombinant PDE2A), 100%; in assay [3], 100%. In addition, the ED50 on PDE2A (route PO (oral)) worked out at 8.63 mg/kg. For the same compound, the receptor occupancy at 10 mg/kg on PDE2A (sc, route SC (subcutaneous)) was found to be 52%.

Take `Cc1cc(C(=O)N2CC[C@@H](C)[C@](F)(c3cc(C(F)F)nc4ncnn34)C2)cc(C)n1` [Compound 82]: the IC50 is over 10000 nM in assay [1], over 10000 nM in assay [2], 33.9 nM in assay [3] (setting [5]) and 33.9 nM in assay [3] (setting [6]). Also, the Emax in assay [1] is 9%; in assay [2], 18%; in assay [3] (human recombinant PDE2A), 101%; in assay [3], 101%. Also, on PDE2A (po, route PO (oral)), the receptor occupancy at 10 mg/kg stood at 28%.

Take `Cc1cc(C(=O)N2CC[C@@H](C)[C@H](c3cc(C(F)F)nc4ncnn34)C2)cc(Cl)n1` [Compound 83]: the IC50 was 7940 nM in assay [1], 97.7 nM in assay [2], 0.933 nM in assay [3] (hPDE2A pIC50) and 0.933 nM in assay [3] (setting [4]). In addition, the Emax in assay [1] was 58%; in assay [2] it was 98%; in assay [3], 100%. At PDE2A (po, route PO (oral)), the receptor occupancy at 10 mg/kg is 82%.

Take `Cc1cc(C(=O)N2CC[C@@H](C)[C@H](c3cc(C(F)F)nc4ncnn34)C2)c(F)cn1` [Compound 84]: the IC50 in assay [1] was 7410 nM; in assay [2], 708 nM; in assay [3] (setting [5]), 3.16 nM; in assay [3] (setting [6]), 3.16 nM. Moreover, the Emax came to 30% in assay [1], 89% in assay [2], 101% in assay [3] (human recombinant PDE2A) and 101% in assay [3]. Besides, the receptor occupancy at 10 mg/kg at PDE2A (po, route PO (oral)) worked out at 45%. In addition, the median effective dose (ED50) at PDE2A (route PO (oral)) is 14.1 mg/kg.

On to `Cc1ccc(C(=O)N2CC[C@@H](C)[C@H](c3cc(C(F)F)nc4ncnn34)C2)nc1C` [Compound 85], for which the IC50 in assay [1] was 7760 nM; in assay [2], 1200 nM; in assay [3] (setting [5]) it was 6.46 nM; in assay [3] (setting [6]), 6.46 nM. The Emax stood at 37% in assay [1], 88% in assay [2], 100% in assay [3] (human recombinant PDE2A) and 100% in assay [3]. In addition, the receptor occupancy at 10 mg/kg on PDE2A (sc, route SC (subcutaneous)) is 1%.

Consider `C[C@@H]1CCN(C(=O)c2ccn3cccc3c2)C[C@H]1c1cc(C(F)F)nc2ncnn12` [Compound 90], for which the IC50 is 214 nM in assay [1], 19.5 nM in assay [2], 0.355 nM in assay [3] (setting [5]) and 0.355 nM in assay [3] (setting [6]). The Emax in assay [1] was 98%; in assay [2], 102%; in assay [3] (human recombinant PDE2A) it was 101%; in assay [3], 101%. Besides, on PDE2A (sc, route SC (subcutaneous)), the receptor occupancy at 10 mg/kg was determined as 73%.

Take `C[C@@H]1CCN(C(=O)c2cc(OC(F)F)cc(C3CC3)c2)C[C@H]1c1cc(C(F)F)nc2ncnn12` [Compound 91]: the IC50 in assay [1] was 708 nM; in assay [2] it was 22.4 nM; in assay [3] (setting [5]), 0.372 nM; in assay [3] (setting [6]) it was 0.372 nM. Further, the Emax in assay [1] worked out at 61%; in assay [2], 94%; in assay [3] (human recombinant PDE2A), 100%; in assay [3] it was 100%. The receptor occupancy at 10 mg/kg on PDE2A (po, route PO (oral)) was -7%.

As for `C[C@@H]1CCN(C(=O)c2ccc3c(c2)OCCC3)C[C@H]1c1cc(C(F)F)nc2ncnn12` [Compound 96], the IC50 in assay [1] is 398 nM; in assay [2], 33.1 nM; in assay [3] (setting [5]) it was 0.55 nM; in assay [3] (setting [6]), 0.55 nM. In addition, the Emax in assay [1] came to 73%; in assay [2], 95%; in assay [3] (human recombinant PDE2A), 100%; in assay [3], 100%. For the same compound, the receptor occupancy at 10 mg/kg at PDE2A (po, route PO (oral)) worked out at 1%.

For `Cc1cc([C@@H]2CN(C(=O)c3ccc4nccn4c3)CC[C@H]2C)n2ncnc2n1` [Compound 99], the IC50 in assay [1] was 2090 nM; in assay [2] it was 9.55 nM; in assay [3] (setting [5]), 0.603 nM; in assay [3] (setting [6]) it was 0.603 nM. The Emax is 87% in assay [1], 100% in assay [2], 100% in assay [3] (human recombinant PDE2A) and 100% in assay [3]. Besides, the receptor occupancy at 10 mg/kg at PDE2A (po, route PO (oral)) is 1%.

With `Cc1cc(C(=O)N2CC[C@@H](C)[C@H](c3cc(C(F)F)nc4ncnn34)C2)cc(C(C)C)n1` [Compound 101], the IC50 in assay [1] was 4790 nM; in assay [2], 57.5 nM; in assay [3] (setting [5]), 0.661 nM; in assay [3] (setting [6]), 0.661 nM. Moreover, the Emax in assay [1] came to 70%; in assay [2], 98%; in assay [3] (human recombinant PDE2A), 101%; in assay [3], 101%. Also, the receptor occupancy at 10 mg/kg on PDE2A (sc, route SC (subcutaneous)) is 43%.

As for `C[C@@H]1CCN(C(=O)c2ccc(C3CC3)c(F)c2)C[C@H]1c1cc(C(F)F)nc2ncnn12` [Compound 103], the IC50 was 87.1 nM in assay [1], 18.2 nM in assay [2], 0.708 nM in assay [3] (setting [5]) and 0.708 nM in assay [3] (setting [6]). The Emax in assay [1] was found to be 100%; in assay [2] it was 100%; in assay [3] (human recombinant PDE2A), 99%; in assay [3], 99%. For the same compound, the receptor occupancy at 10 mg/kg at PDE2A (sc, route SC (subcutaneous)) stood at 42%.

Regarding `Cc1cc(C(=O)N2CC[C@@H](C)[C@H](c3cc(C(F)F)nc4ncnn34)C2)cc(OC(C)C)n1` [Compound 107], the IC50 was 4170 nM in assay [1], 81.3 nM in assay [2], 0.912 nM in assay [3] (setting [5]) and 0.912 nM in assay [3] (setting [6]). In addition, the Emax in assay [1] came out at 61%; in assay [2], 99%; in assay [3] (human recombinant PDE2A), 100%; in assay [3], 100%. Further, on PDE2A (po, route PO (oral)), the receptor occupancy at 10 mg/kg amounted to 29%.

Take `Cc1cc([C@@H]2CN(C(=O)c3cc(C)c(Cl)c(C)c3)CC[C@H]2C)n2ncnc2n1` [Compound 109]: the IC50 in assay [1] was 457 nM; in assay [2], 6.61 nM; in assay [3] (hPDE2A pIC50) it was 0.933 nM; in assay [3] (setting [4]) it was 0.933 nM. The results for the Emax in assay [1], in assay [2] and in assay [3] were 98%, 99% and 101%, respectively. The receptor occupancy at 10 mg/kg at PDE2A (po, route PO (oral)) was determined as 43%.

As to `Cc1cc(C(=O)N2CC[C@@H](C)[C@H](c3cc(C(F)F)nc4ncnn34)C2)cc(C)c1F` [Compound 115], the IC50 in assay [1] was 1950 nM; in assay [2], 77.6 nM; in assay [3] (hPDE2A pIC50), 1.05 nM; in assay [3] (setting [4]) it was 1.05 nM. The results for the Emax in assay [1], in assay [2] and in assay [3] were 87%, 99% and 100%, respectively. For the same compound, on PDE2A (po, route PO (oral)), the receptor occupancy at 10 mg/kg was 23%.
